Measurements as given in PubChem BioAssay AID316 (DTP/NCI, 2004).
Values joined by “and” are separate entries in the source; they are usually repeats but may differ in a detail not shown here. Identical values can stand only once. Inconclusive results and toxic doses are left out. Rule for the calls: active = survival T/C of 150% or more; inactive = T/C below 125% in these data.

System: P1534 leukemia ip, CD2F1 mice, survival T/C
Assay: NCI In Vivo Anticancer Drug Screen. Data for tumor model P1534 Leukemia (intraperitoneal) in CD2F1 (CDF1) mice
Conditions: higher = longer survival
Procedure: The antitumor activity of compounds was measured in mice bearing transplantable tumors. Survival or tumor size were measured and the results are expressed as the measurement made in the treated group (T) divided by the measurement made in the vehicle treated control group (C). The tumor model used in this assay is P1534 Leukemia (intraperitoneal) in CD2F1 (CDF1) mice

[1] = endpoint: mean survival time, dose: 100.0 mg/kg/injection, schedule: Q01DX010 (ip), vehicle: saline
[2] = endpoint: mean survival time, dose: 200.0 mg/kg/injection, schedule: Q01DX010 (ip), vehicle: saline
[3] = endpoint: mean survival time, dose: 400.0 mg/kg/injection, schedule: Q01DX010 (ip), vehicle: saline
[4] = endpoint: mean survival time, dose: 50.0 mg/kg/injection, schedule: Q01DX010 (ip), vehicle: saline
[5] = endpoint: mean survival time, dose: 25.0 mg/kg/injection, schedule: Q01DX010 (ip), vehicle: saline
[6] = endpoint: mean survival time, dose: 10.0 mg/kg/injection, schedule: Q01DX010 (ip), vehicle: saline
[7] = endpoint: mean survival time, dose: 20.0 mg/kg/injection, schedule: Q01DX010 (ip), vehicle: saline
[8] = endpoint: mean survival time, dose: 40.0 mg/kg/injection, schedule: Q01DX010 (ip), vehicle: saline
[9] = endpoint: mean survival time, dose: 80.0 mg/kg/injection, schedule: Q01DX010 (ip), vehicle: saline
[10] = endpoint: mean survival time, dose: 12.5 mg/kg/injection, schedule: Q01DX010 (ip), vehicle: saline
[11] = endpoint: mean survival time, dose: 62.5 mg/kg/injection, schedule: Q01DX010 (ip), vehicle: saline
[12] = endpoint: mean survival time, dose: 125.0 mg/kg/injection, schedule: Q01DX010 (ip), vehicle: saline
[13] = endpoint: mean survival time, dose: 6.25 mg/kg/injection, schedule: Q01DX010 (ip), vehicle: saline

Measured: T/C

CN(C)CC(=O)NCCCCCCCCCCNC(=O)CN(C)C
inactive: [1] 100 % of control | [2] 100 % of control | [3] 107 % of control

COc1ccc(C2NC(C(=O)O)Cc3c2[nH]c2ccccc32)cc1OC (stereo unspecified)
inactive: [4] 96 % of control | [1] 100 % of control | [2] 100 % of control | [3] 100 % of control

NC(N)=NCCCC(N)C(=O)NCCCCCCNC(=O)C(N)CCCN=C(N)N (stereo unspecified)
inactive: [5] 100 % of control | [4] 96 % of control | [1] 100 % of control | [2] 100 % of control

CC[C@@H](c1ccc(O)cc1)[C@@H](CC)c1ccc(O)cc1
inactive: endpoint: mean survival time, dose: 25.0 mg/kg/injection, schedule: Q01DX010 (sc), vehicle: water 100 % of control | endpoint: mean survival time, dose: 50.0 mg/kg/injection, schedule: Q01DX010 (sc), vehicle: water 92 % of control | endpoint: mean survival time, dose: 100.0 mg/kg/injection, schedule: Q01DX010 (sc), vehicle: water 92 % of control | endpoint: mean survival time, dose: 200.0 mg/kg/injection, schedule: Q01DX010 (sc), vehicle: water 92 % of control

CC1CCC2(NC1)OC1CC3C4CCC5CC(OC6OC(CO)C(OC7OC(CO)C(O)C(OC8OCC(O)C(O)C8O)C7OC7OC(CO)C(O)C(O)C7O)C(O)C6O)CCC5(C)C4CCC3(C)C1C2C (stereo unspecified)
inactive: endpoint: mean survival time, dose: 5.0 mg/kg/injection, schedule: Q01DX010 (sc), vehicle: steriod suspending solution 100 % of control | endpoint: mean survival time, dose: 10.0 mg/kg/injection, schedule: Q01DX010 (sc), vehicle: steriod suspending solution 100 % of control

N=C(N)SCc1c2ccccc2c(CSC(=N)N)c2ccccc12
inactive: endpoint: mean survival time, dose: 0.31 mg/kg/injection, schedule: Q01DX010 (ip), vehicle: saline 117 % of control | endpoint: mean survival time, dose: 0.63 mg/kg/injection, schedule: Q01DX010 (ip), vehicle: saline 121 % of control

N#Cc1cn(C2OC(CO)C(O)C2O)c2ncnc(N)c12 (stereo unspecified)
inactive: endpoint: mean survival time, dose: 16.0 micrograms/kg/injection, schedule: Q01DX010 (ip), vehicle: saline 107 % of control | endpoint: mean survival time, dose: 32.0 micrograms/kg/injection, schedule: Q01DX010 (ip), vehicle: saline 100 % of control | endpoint: mean survival time, dose: 63.0 micrograms/kg/injection, schedule: Q01DX010 (ip), vehicle: saline 107 % of control

C[C@]12C[C@H](O)[C@H]3[C@@H](CCC4=CC(=O)CC[C@@]43C)[C@@H]1CC[C@@H]2C(=O)CO
inactive: endpoint: mean survival time, dose: 12.5 mg/kg/injection, schedule: Q01DX010 (sc), vehicle: steriod suspending solution 107 % of control | endpoint: mean survival time, dose: 25.0 mg/kg/injection, schedule: Q01DX010 (sc), vehicle: steriod suspending solution 107 % of control | endpoint: mean survival time, dose: 50.0 mg/kg/injection, schedule: Q01DX010 (sc), vehicle: steriod suspending solution 107 % of control | endpoint: mean survival time, dose: 100.0 mg/kg/injection, schedule: Q01DX010 (sc), vehicle: steriod suspending solution 107 % of control

CN(C)c1ccc(C(N)=O)cn1
inactive: endpoint: mean survival time, dose: 1.5 mg/kg/injection, schedule: Q01DX010 (ip), vehicle: saline 115 % of control | endpoint: mean survival time, dose: 3.0 mg/kg/injection, schedule: Q01DX010 (ip), vehicle: saline 123 % of control

COc1ccc(C(=O)C[C@H]2CCC[C@@H](CC(=O)c3ccc(OC)cc3)N2C)cc1
inactive: [6] 107 % of control | [7] 100 % of control | [8] 100 % of control | [9] 107 % of control

COc1ccc2cc3[n+](cc2c1O)CCc1cc2c(cc1-3)OCO2
inactive: [10] 111 % of control | [5] 123 % of control | [4] 115 % of control

Cc1nc(N)nc(N)c1-c1ccc(Cl)c(Cl)c1
inactive: endpoint: median survival time, dose: 0.75 mg/kg/injection, schedule: Q01DX009 (ip), vehicle: Klucel (hydroxypropylcellulose) (HPC) 102 % of control | endpoint: median survival time, dose: 1.5 mg/kg/injection, schedule: Q01DX009 (ip), vehicle: Klucel (hydroxypropylcellulose) (HPC) 119 % of control | endpoint: median survival time, dose: 3.0 mg/kg/injection, schedule: Q01DX009 (ip), vehicle: Klucel (hydroxypropylcellulose) (HPC) 107 % of control

Cc1cc(O)c2cc3c(O)c(O)ccc3cc2c1
inactive: endpoint: mean survival time, dose: 1.0 mg/kg/injection, schedule: Q01DX010 (ip), vehicle: saline 100 % of control | endpoint: mean survival time, dose: 2.0 mg/kg/injection, schedule: Q01DX010 (ip), vehicle: saline 103 % of control

CS(=O)(=O)OCC(O)C(O)COS(C)(=O)=O (stereo unspecified)
inactive: [7] 107 % of control | [8] 107 % of control | [9] 107 % of control | [1] 103 % of control | endpoint: mean survival time, dose: 160.0 mg/kg/injection, schedule: Q01DX010 (ip), vehicle: saline 117 % of control | [2] 103 % of control | [3] 107 % of control | endpoint: mean survival time, dose: 800.0 mg/kg/injection, schedule: Q01DX010 (ip), vehicle: saline 89 % of control

C/C=C1/CN[C@H]2Cc3c([nH]c4ccccc34)[C@@H](O)C[C@@H]1C2C(=O)OC (stereo partly specified)
inactive: endpoint: mean survival time, dose: 7.5 mg/kg/injection, schedule: Q01DX010 (ip), vehicle: saline 93 % of control | endpoint: mean survival time, dose: 15.0 mg/kg/injection, schedule: Q01DX010 (ip), vehicle: saline 93 % of control | endpoint: mean survival time, dose: 30.0 mg/kg/injection, schedule: Q01DX010 (ip), vehicle: saline 96 % of control | endpoint: mean survival time, dose: 60.0 mg/kg/injection, schedule: Q01DX010 (ip), vehicle: saline 93 % of control

O=C1C(=O)N(CN2CCOCC2)c2ccccc21
inactive: [4] 100 % of control | [1] 100 % of control | [2] 96 % of control | [3] 103 % of control

CC1=NN(c2ccccc2)C(=O)C1
inactive: endpoint: mean survival time, dose: 150.0 mg/kg/injection, schedule: Q01DX010 (ip), vehicle: water 94 % of control | endpoint: mean survival time, dose: 300.0 mg/kg/injection, schedule: Q01DX010 (ip), vehicle: water 91 % of control

O=CN(O)CC(=O)O
inactive: endpoint: mean survival time, dose: 15.6 mg/kg/injection, schedule: Q01DX010 (ip), vehicle: saline 100 % of control | endpoint: mean survival time, dose: 31.3 mg/kg/injection, schedule: Q01DX010 (ip), vehicle: saline 100 % of control | [11] 100 % of control | [12] 103 % of control

COC(=O)C1=COC(C)C2CN3CCc4c([nH]c5ccccc45)C3CC12 (stereo unspecified)
inactive: [7] 96 % of control | [8] 93 % of control | [9] 96 % of control

CCCCCCCCCCCCCCCCC(C(=O)O)C(O)(CC(=O)O)C(=O)O (stereo unspecified)
inactive: [5] 88 % of control

NC(=O)c1cn[nH]c1N
inactive: endpoint: mean survival time, dose: 100.0 mg/kg/injection, schedule: Q01DX010 (ip), vehicle: water 100 % of control | endpoint: mean survival time, dose: 200.0 mg/kg/injection, schedule: Q01DX010 (ip), vehicle: water 93 % of control

COc1c(OC2OC(CO)C(O)C(O)C2O)cc2c(c1OC)-c1ccc(OC)c(=O)cc1C(NC(C)=O)CC2 (stereo unspecified)
inactive: [13] 107 % of control | [10] 107 % of control | [5] 107 % of control | [4] 107 % of control and 110 % of control

c1ccc2ncccc2c1
inactive: [5] 100 % of control | [4] 100 % of control | [1] 96 % of control

CS(=O)(=O)OCCCCOS(C)(=O)=O
inactive: [13] 106 % of control and 88 % of control | [10] 88 % of control and 100 % of control | [5] 112 % of control and 88 % of control | [4] 112 % of control and 100 % of control

CC(=O)OC(C)(C)/C=C/C(=O)[C@](C)(O)[C@H]1[C@H](O)C[C@@]2(C)[C@@H]3CC=C4[C@@H](C[C@H](O)C(=O)C4(C)C)[C@]3(CO)C(=O)C[C@]12C
inactive: endpoint: mean survival time, dose: 0.16 mg/kg/injection, schedule: Q01DX010 (ip), vehicle: saline 103 % of control | endpoint: mean survival time, dose: 0.25 mg/kg/injection, schedule: Q01DX010 (ip), vehicle: saline 107 % of control | endpoint: mean survival time, dose: 0.57 mg/kg/injection, schedule: Q01DX010 (ip), vehicle: saline 103 % of control

CN(C)c1ccc(/C=C\c2ccnc3ccccc23)cc1
inactive: endpoint: mean survival time, dose: 8.0 mg/kg/injection, schedule: Q01DX010 (ip), vehicle: saline 115 % of control | endpoint: mean survival time, dose: 12.0 mg/kg/injection, schedule: Q01DX010 (ip), vehicle: saline 115 % of control | endpoint: mean survival time, dose: 18.0 mg/kg/injection, schedule: Q01DX010 (ip), vehicle: saline 103 % of control and 100 % of control | endpoint: mean survival time, dose: 27.0 mg/kg/injection, schedule: Q01DX010 (ip), vehicle: saline 123 % of control

C=C(C(=O)OC1CC2CCC(C1)N2C)c1ccccc1 (stereo unspecified)
inactive: endpoint: mean survival time, dose: 1.25 mg/kg/injection, schedule: Q01DX010 (ip), vehicle: saline 92 % of control | endpoint: mean survival time, dose: 2.5 mg/kg/injection, schedule: Q01DX010 (ip), vehicle: saline 92 % of control | endpoint: mean survival time, dose: 5.0 mg/kg/injection, schedule: Q01DX010 (ip), vehicle: saline 100 % of control | [6] 107 % of control

OCC1OC(n2cnc3c(=S)nc[nH]c32)C(O)C1O (stereo unspecified)
inactive: [7] 111 % of control | [8] 111 % of control and 122 % of control

CC(=O)N(C)C
inactive: [11] 94 % of control and 100 % of control | [12] 105 % of control and 100 % of control | endpoint: mean survival time, dose: 250.0 mg/kg/injection, schedule: Q01DX010 (ip), vehicle: saline 105 % of control and 100 % of control | endpoint: mean survival time, dose: 500.0 mg/kg/injection, schedule: Q01DX010 (ip), vehicle: saline 100 % of control
